Data set [1] concerns nontumorigenic neonatal foreskin fibroblast (NFF) cell line.
Data set [2] relates to Trichomonas vaginalis G3 trophozoites.
The mark [3] stands for this setting: HTS, parasite screen at 1 µg/mL, replicate 1.
[4] abbreviates: HTS, parasite screen at 1 µg/mL, replicate 1, raw absorbance.
Where [5] appears, read: HTS, parasite screen at 1 µg/mL, replicate 2.
[6] abbreviates: HTS, parasite screen at 1 µg/mL, replicate 2, raw absorbance.

Like-named read-outs stand apart in the source and are kept apart here.

Regarding `CC[C@H](C)[C@H]1O[C@]2(C=C[C@@H]1C)C[C@@H]1C[C@@H](C/C=C(\C)[C@@H](O[C@H]3C[C@H](OC)[C@@H](O[C@H]4C[C@H](OC)[C@H](NC(C)=O)[C@H](C)O4)[C@H](C)O3)[C@@H](C)/C=C/C=C3\CO[C@@H]4[C@H](O)C(C)=C[C@@H](C(=O)O1)[C@]34O)O2` [Eprinomectin B1a], the NFF_Activity result in data set [1] (NFF_NS1 screen at 5 µg/mL) was “I (otherwise these were reported as inactive (I))”. In addition, the T.vaginalis_%inb_Rep1 in data set [2] (setting [3]) is listed as 13.46%. Further, the T.vaginalis_Absorbance_Rep1 in data set [2] (setting [4]) came out at 0.959. This compound returned a T.vaginalis_%inb_Rep2 in data set [2] (setting [5]) of 14.17%. In addition, in data set [2] (setting [6]), the T.vaginalis_Absorbance_Rep2 came out at 0.816.

Take `CO[C@H]1C[C@H](O[C@H]2[C@H](C)O[C@@H](O[C@@H]3/C(C)=C/C[C@@H]4C[C@@H](C[C@]5(C=C[C@H](C)[C@@H](C(C)C)O5)O4)OC(=O)[C@@H]4C=C(C)[C@@H](O)[C@H]5OC/C(=C\C=C\[C@@H]3C)[C@]54O)C[C@@H]2OC)O[C@@H](C)[C@H]1NC(C)=O` [Eprinomectin B1b]: the NFF_Activity result in data set [1] was “I (key: active (A) compounds having >25% inhibitory activity; otherwise these were reported as inactive (I))”. For the same compound, in data set [2], the T.vaginalis_%inb_Rep1 is recorded as 14.00%, the T.vaginalis_%inb_Rep2 is 14.75%, the T.vaginalis_Absorbance_Rep1 is listed as 0.969 and the T.vaginalis_Absorbance_Rep2 amounted to 0.824.

Consider `C/C=C/[C@@H]1C=C[C@@H]2C[C@H](C)CC[C@H]2[C@]1(C)/C(O)=C1/C(=O)[C@H](CO)N(C)C1=O` [Equisetin], for which the NFF_Activity entry in data set [1] (NFF_NS1 screen at 5 µg/mL) was “I (otherwise these were reported as inactive (I))”. The T.vaginalis_%inb_Rep1 in data set [2] (setting [3]) was 12.17%. In data set [2] (setting [4]), this compound displayed a T.vaginalis_Absorbance_Rep1 of 0.942. This compound yielded a T.vaginalis_%inb_Rep2 in data set [2] (setting [5]) of 15.65%. This compound yielded a T.vaginalis_Absorbance_Rep2 in data set [2] (setting [6]) of 0.879.

Turning to `CC[C@H]1OC(=O)[C@H](C)[C@@H](O[C@H]2C[C@@](C)(OC)[C@@H](O)[C@H](C)O2)[C@H](C)[C@@H](O[C@@H]2O[C@H](C)C[C@H]([N+](C)(C)[O-])[C@H]2O)[C@](C)(O)C[C@@H](C)C(=O)[C@H](C)[C@@H](O)[C@]1(C)O` [Erythromycin A N-oxide], the NFF_Activity entry in data set [1] (NFF_NS1 screen at 5 µg/mL) is “I (otherwise these were reported as inactive (I))”. Also, the T.vaginalis_%inb_Rep1 in data set [2] (setting [3]) is 6.03%. Moreover, the T.vaginalis_Absorbance_Rep1 in data set [2] (setting [4]) came to 0.821. Moreover, the T.vaginalis_%inb_Rep2 in data set [2] (setting [5]) was 9.83%. In data set [2] (setting [6]), this compound came in with a T.vaginalis_Absorbance_Rep2 of 0.756.

As for `CC[C@H]1OC(=O)[C@H](C)[C@@H](O[C@H]2C[C@@](C)(OC)[C@@H](O)[C@H](C)O2)[C@H](C)[C@@H](O[C@@H]2O[C@H](C)C[C@H](N(C)C)[C@H]2O)[C@@]2(C)CC(C)=C(O2)[C@H](C)[C@@H](O)[C@]1(C)O` [Erythromycin A enol ether], in data set [1] (NFF_NS1 screen at 5 µg/mL), the NFF_Activity result was “I (otherwise these were reported as inactive (I))”. The T.vaginalis_%inb_Rep1 in data set [2] (setting [3]) turned out to be 5.17%. This compound also yielded a T.vaginalis_Absorbance_Rep1 in data set [2] (setting [4]) of 0.805. In data set [2] (setting [5]), this compound displayed a T.vaginalis_%inb_Rep2 of 18.87%. In data set [2] (setting [6]), this compound came in with a T.vaginalis_Absorbance_Rep2 of 0.881.

Turning to `CC[C@H]1OC(=O)[C@H](C)[C@@H](O[C@H]2C[C@@](C)(OC)[C@@H](O)[C@H](C)O2)[C@H](C)[C@@H](O[C@@H]2O[C@H](C)C[C@H](N(C)C)[C@H]2O)[C@](C)(O)C[C@@H](C)C(=NO)[C@H](C)[C@@H](O)[C@]1(C)O` [Erythromycin A oxime], in data set [1] (NFF_NS1 screen at 5 µg/mL), the NFF_Activity result is “I (otherwise these were reported as inactive (I))”. The compound further displayed a T.vaginalis_%inb_Rep1 in data set [2] (setting [3]) of 3.82%. In addition, the T.vaginalis_Absorbance_Rep1 in data set [2] (setting [4]) was found to be 0.78. This compound also registered a T.vaginalis_%inb_Rep2 in data set [2] (setting [5]) of 4.19%. This compound returned a T.vaginalis_Absorbance_Rep2 in data set [2] (setting [6]) of 0.678.

Regarding `CC[C@H]1OC(=O)[C@H](C)[C@@H](O[C@H]2C[C@@](C)(OC)[C@@H](O)[C@H](C)O2)[C@H](C)[C@@H](O[C@@H]2O[C@H](C)C[C@H](N(C)C)[C@H]2O)[C@](C)(O)C[C@@H](C)C(=O)[C@H](C)[C@@H](O)[C@]1(C)O` [Erythromycin A], the NFF_Activity entry in data set [1] (NFF_NS1 screen at 5 µg/mL) is “I (otherwise these were reported as inactive (I))”. Moreover, the T.vaginalis_%inb_Rep1 in data set [2] (setting [3]) is 5.27%. In data set [2] (setting [4]), this compound registered a T.vaginalis_Absorbance_Rep1 of 0.806. Further, in data set [2] (setting [5]), the T.vaginalis_%inb_Rep2 worked out at 3.78%. The compound further had a T.vaginalis_Absorbance_Rep2 in data set [2] (setting [6]) of 0.694.

The values above are taken from paper PMC7897990, “TriTOX: A novel Trichomonas vaginalis assay platform for high-throughput screening of compound libraries” (International Journal for Parasitology: Drugs and Drug …, 2021).
